# US20100179158A1, “INHIBITORS OF CYCLIC AMP PHOSPHODIESTERASES” (priority 2007, published 2010)
# Experiments:
# PDE4B3 = target: T1, PDE4B3 (Mus musculus, UniProt Q8VBU5); test: Fission yeast 5FOA growth assay, strain expressing PDE4B3; type: cell-based, murine; conditions: 5FOA growth screen; for 2 Assay (2 uM), PDE 4B3: 2 uM compound; for 1 Assay (20 uM), PDE 4B3: 20 uM compound
# T1 construct: targets used in the assays are full-length proteins (as opposed to simply the catalytic domain); expressed in transfected cells; host or cells: Schizosaccharomyces pombe, gene integrated at the cgs2 locus
# T1 sequence (Q8VBU5 1-721): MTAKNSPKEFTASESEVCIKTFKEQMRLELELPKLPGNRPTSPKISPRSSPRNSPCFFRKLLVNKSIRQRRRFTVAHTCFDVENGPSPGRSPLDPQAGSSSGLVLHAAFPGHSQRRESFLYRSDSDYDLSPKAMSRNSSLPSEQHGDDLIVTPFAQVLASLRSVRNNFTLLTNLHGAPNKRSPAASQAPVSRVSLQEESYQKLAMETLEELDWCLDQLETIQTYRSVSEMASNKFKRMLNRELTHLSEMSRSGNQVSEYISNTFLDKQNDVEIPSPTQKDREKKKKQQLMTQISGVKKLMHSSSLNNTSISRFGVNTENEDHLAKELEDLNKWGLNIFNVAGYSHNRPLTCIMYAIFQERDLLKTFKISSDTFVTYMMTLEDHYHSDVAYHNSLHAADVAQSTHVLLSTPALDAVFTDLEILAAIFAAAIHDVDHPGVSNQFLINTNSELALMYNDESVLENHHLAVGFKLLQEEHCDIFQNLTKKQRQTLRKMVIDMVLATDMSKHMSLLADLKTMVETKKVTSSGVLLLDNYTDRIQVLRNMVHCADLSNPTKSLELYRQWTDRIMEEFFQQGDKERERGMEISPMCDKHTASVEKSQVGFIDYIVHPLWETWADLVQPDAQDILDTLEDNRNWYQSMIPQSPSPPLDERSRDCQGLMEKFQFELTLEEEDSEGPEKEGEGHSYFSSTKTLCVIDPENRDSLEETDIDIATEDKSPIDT
# Method: High throughput drug screens were carried out at the Broad Institute's Chemical Biology Program screening facility (Broad Institute, Cambridge, Mass.). Depending upon the strain, cultures were pregrown to exponential phase in EMM complete medium containing from 0.5 to 2.5 mM cAMP to repress fbp1-ura4 transcription. […] Starting cell concentrations ranged from 0.5×10^5 to 4×10^5 cells/ml depending on the screening strain. […] Other positive control dishes contained 5 mM cAMP in the 5FOA medium. Cultures were grown for 48 hours at 30° C., sealed in an airtight container with moist paper towels to prevent evaporation. Optical densities (OD600) of cultures were measured using a microplate reader. Bioinformatic analysis of the results to determine composite Z scores was performed as previously described^30, 31.
# Cells were pregrown in EMM medium [MP Biomedicals (Solon, OH), 3% glucose, filter-sterilized to avoid carmelization, which would introduce variability into the optical density of the medium] containing from 0 mM to 2.5 mM cAMP (or either 0.5 mM or 1.0 mM cGMP). This was to repress expression of the fbp1-ura4 reporter prior to exposure of cells to 5FOA medium. Cells were grown at 30° C. to exponential phase (approximately 10^7 cells/ml). […] Starting cell concentrations ranged from 0.5×10^5 to 4×10^5 cells/ml depending on the screening strain. […] Other positive control dishes contained 5 mM cAMP in the 5FOA medium for PDEs that lack appropriate control compounds. Cultures were grown for 48 hours at 30° C., sealed in an airtight container with moist paper towels to prevent evaporation. Optical densities (OD600) of cultures were measured using a microplate reader. Bioinformatic analysis of the results to determine composite Z scores was performed as previously described (1, 3).
# [1] = system: PDE4A, PDE4B, PDE4D, PDE7A; test: Overall PDE inhibitor profile from the yeast assays (table footnotes, summary); type: cell-based
# Procedure, shortened: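 Fission yeast strains expressing full-length PDEs with an fbp1-ura4 reporter, pregrown in EMM with 0–2.5 mM cAMP (or 0.5 or 1.0 mM cGMP), then grown 48 h at 30° C in 5FOA medium with 100 nl of compound pinned per well (10 mM stocks). Growth read as OD600; composite Z scores calculated.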
Structure (SMILES),"2 Assay (2 uM), PDE 4B3 (PDE4B3)","1 Assay (20 uM), PDE 4B3 (PDE4B3)",PDE inhibitor profile in words (table footnote / summary) [1]
COC(=O)C1=C(C)N(C2CCCCC2)C(=O)/C1=C\c1cccs1 [Compound 22],37.54,70.26,"(4) Strong PDE4A, 4B, 7 inhibitor; Weak PDE4D inhibitor"
"COC(=O)C1=C(C)N(c2ccccc2F)C(=O)/C1=C\c1cccc(OC)c1O [2008, C21]",,24.16 ND ND ND ND,"(2) Strong PDE4A, 4B inhibitor"
"COC(=O)C1=C(C)N(c2ccc(C(C)C)cc2)C(=O)/C1=C\c1cccs1 [2008, O19]",,−2.99 ND ND ND ND,(1) No activity under conditions used
COC(=O)C1=C(C)N(c2ccccc2Cl)C(=O)/C1=C\c1cccs1 [Compound 27],22.05,−0.26,"(3) Strong PDE4A, 4B inhibitor"
Cc1ccc2c(c1)c1nc3ccccc3nc1n2C(C)C [Compound 41],,200.51,
"COC(=O)C1=C(C)N(c2ccccc2)/C(=C/c2cccs2)C1=O [2008, K19]",,−0.61 ND ND ND ND,(1) No activity under conditions used
